Test results taken from paper PMC4820820, “CETSA screening identifies known and novel thymidylate synthase inhibitors and slow intracellular activation of 5-fluorouracil” (Nature Communications, 2016).
Read-outs that look alike come from different tables or passages of the source.

Test system: K562 cells
Assay: Cell viability assay (CellTiter-Glo)
Type: cell-based
Conditions: Homo sapiens
Method: A concentration–response curve of CBK115334 was generated using the Bravo liquid handling system (serial dilution of a 50 mM stock solution was done in 100% DMSO). A total of 150 nl of the serially diluted solutions and controls (positive control 0.67 mM staurosporine and negative control DMSO) were transferred to a white 384-well assay plate (3570, Corning) by means of acoustic dispensing (Echo 550, Labcyte). A Multidrop reagent dispenser (Thermo Scientific) was used to dispense 30 μl of a K562 cell suspension at a density of 33 × 10^3 cells per ml in supplemented cell culture medium. The cells were incubated at 37 °C in the presence of 5% CO2 for 72 h before addition of 30 μl CellTiter-Glo Luminescent Cell Viability Assay reagent (Promega) using a Multidrop Combi reagent dispenser (Thermo Scientific). The plate was placed on a plate shaker for 15 min prior to detection of the luminescence signal in an Envision plate reader (PerkinElmer). The final highest concentration of CBK115334 in the incubation with cells was 250 μM and the final concentration of the positive control staurosporine was 3 μM. All samples contained 0.5% DMSO. The data were analyzed using microsoft excel and GraphPad Prism 6.

IC50 (72 hours incubation, read-out: IC50 cell viability): 88 ± 15 µM | IC50 (read-out: IC50 cell proliferation): < 100 µM
Compound: Cc1cc(O)nc2sc(C(=O)c3ccccc3)c(N)c12 [CBK115334, 3-amino-2-benzoyl-4-methylthieno(2,3-b)pyridin-6-ol]
